The values that follow come from US9827237B2, “Compounds useful for treating diseases caused by retroviruses” (ABIVAX, priority 2013, dated 2017).

Structures are written as SMILES.

This assay relates to HTLV-1. The assay can be described thus: Inhibition of HTLV-1: Tax-1 protein expression by western blotting in HUT102 cells. Conditions: HUT102 (HTLV-1 chronically infected) cells, 10 μM daily for three days; western blot, normalised by tubulin, related to DMSO treated cells; triplicate. Type of assay: cell-based, Human T-lymphotropic virus (HTLV). How it is done: To determine whether the compounds described above could act as HTLV inhibitors, a screen was performed on HUT102 (HTLV-1 chronically infected) cells.
Cells were plated at a density of 150 000 cells per well in 96 wells plates and treated daily with 10 μM of compounds for three days.
Cells were then harvested and an aliquot was used for cytotoxicity evaluation with Cell Titer (Promega).
The remaining cells was washed in phosphate buffer saline (PBS) and lysed for protein quantification with Bradford Assay (Sigma).
Then, HTLV Tax-1 protein expression was evaluated from 30 μg of total proteins by western blotting analysis.
Tax-1 expression was normalised by tubulin expression and related to control (DMSO treated) cells. Each compound was tested in triplicate.

As for `COc1ccc(Nc2ccc3c(N4CCN(C)CC4)ccnc3c2)cc1` [Compound 166, N-(4-methoxyphenyl)-4-(4-methylpiperazin-1-yl)quinolin-7-amine], the “reduced Tax-1 expression when compared to control” value was determined as 80%.
